Measured values taken from patent US6982273B1, “Compositions and methods containing bioavailable Se-methyl-L-selenocysteine for human and veterinary use” (Sami Labs Ltd., priority 2002, dated 2006).

Columns and labels:
[1] = test system: dimethyl-benz(a)anthracene-induced mammary tumor; conditions: 1–2 ppm Se in diet from 1 week before DMBA until sacrifice; order of efficacy: Se-methylselenocysteine > selenite > selenocysteine > dimethyl selenoxide; cited from earlier work
[2] = test system: glutathione peroxidase; conditions: selenium-depleted animals; efficiency: Se-methylselenocysteine > dimethyl selenoxide > trimethylselenonium; cited from earlier work
[3] = test system: rats with macrophage associated liver injury and endotoxemia; test: Suppression of macrophage associated liver injury and endotoxemia (P. acnes + LPS) in rats; assay type: in vivo, rat; conditions: Se-methyl-L-selenocysteine 4 mg/kg, composition 2 mg/kg
Procedure: The composition used consisted of Se-methyl-L-selenocysteine of the parent application to which piperine from black pepper fruit was added such that the animals received a co-administered daily dose of 5 mg of piperine.
Study Design: Male Wistar King A rats (200–250 g) were maintained on a basal pelleted diet and water ad libitum under normal temperature and lighting conditions. All rats received an injection of 40 mg/kg body weight of heat killed Propionibacterium acnes (ATCC 11827), 20 mg/ml suspension in saline via the tail vein on day 1. Seven days later they received an intravenous injection of 350 mcg/kg body weight of lipopolysaccharide (LPS, Difco Laboratories, MI, USA), 200 mcg/ml solution in saline). 5 rats received a daily dose of 4 mg/kg body weight of Se-methyl-L-selenocysteine and 5 rats received 2 mg/kg body weight of the composition of the invention, orally for 3 days in the feed, 4 control rats received no supplementation, prior to induction of liver injury, 4 normal controls were not subjected to liver injury. Serum levels of TNF-α were measured. TNF-α is thought to be the principal mediator of the deleterious effects of LPS.

| Structure (SMILES) | chemopreventive activity (tumor inhibition) [1] | ability to restore glutathione peroxidase activity [2] | other results |
| --- | --- | --- | --- |
| O=[Se](O)O [selenite] | tumor inhibition |  |  |
| N[C@@H](C[SeH])C(=O)O [selenocysteine] | tumor inhibition |  |  |
| C[Se+](C)C [trimethylselenonium] |  | fully replete |  |
| C[Se](C)=O [dimethyl selenoxide] | tumor inhibition | fully replete |  |
| C[Se]C[C@H](N)C(=O)O [Se-methyl-L-selenocysteine] | tumor inhibition | fully replete | Catalase ([3]; oral 3 days): 31.16 ± 3.95 micromole of H2O2 consumed/min; Glutathione (GSH) ([3]; oral 3 days): 7.43 ± 0.69 mcg/mg protein; Glutathione peroxidase ([3]; oral 3 days): 8.13 ± 0.71 micromole of GSH oxidized/min/; Serum Lipid peroxides ([3]; oral 3 days): 2.71 ± 0.32 MDA formed/mg protein; Superoxide dismutase ([3]; oral 3 days): 4.91 ± 0.48 Units/min/mg protein; TNF-alpha (serum) ([3]; oral 3 days): 81 ± 6 ng/mL; Survival rate ([3]; oral in feed 3 days before injury, survivors/n): 3/5 |
